According to patent publication US11471502B2, “Neuroprotective peptide” (UNIVERSITY COLLEGE CARDIFF C[…], priority 2017, dated 2022):

How the values were obtained:
[1] = test system: embryonic striatal cultures; assay: TUNEL apoptosis in neuronal embryonic striatal cultures; type: cell-based, mouse
Method: Data are expressed as Mean±SEM, n=5. Two-way ANOVA Bonferroni post-hoc comparison **p<0.01.
Embryonic cultures (E16) were prepared from striata of WT mice, plated onto poly-L-lysine coated glass and kept for 10 days in culture medium as previously described (Fasano et al, Biol Psy 2009). Two different concentrations (20 μM and 50 μM) of CPP-RB5 and CPP-SCR peptides were added to the culture medium by the third day and replaced every day. On day 11, cells were fixed with 4% PFA pH 7.4 in PBS for 10 min.
The DeadEnd Colorimetric TUNEL System (Promega) was used to detect apoptotic cells in cultured cells labelling the fragmented DNA of apoptotic cells using a modified TUNEL assay. TUNEL staining was realized with diaminobenzide (DAB) following the manufacture's protocol. Sample areas were digitized through a video camera (Nicon) connected to a Zeiss microscope using a 20× objective. 4 areas were counted and averaged for each plate.

[2] = test system: C57BL/6 mice treated with 3-NP; assay: 3-Nitropropionic acid (3-NP) pharmacological mouse model of Huntington's disease; type: in vivo; details: 20 mg/kg i.p. twice a day, 3-NP 50 mg/kg once a day, 7 days
Method: Importantly, this reduction resembled physiological condition (RB5 3-NP vs RB5 Saline p=0.85). Mean±SEM, n=10 each experimental group).
Before use, CCP-SCR and CPP-RB5 were diluted in PBS 1× and injected twice a day at 12 hr intervals (20 mg/kg). 3-NP was injected 1 h after peptides once a day for 7 consecutive days (50 mg/kg) in male C57B/6 mice. All drugs were administered by intraperitoneal (i.p.) injection in a volume of 10 ml/kg. The mice were euthanized 1 hr after the last peptide injection and transcardially perfused with buffered 4% PFA, and processed for immunohistochemistry. The DeadEnd Colorimetric TUNEL System (Promega) was used to detect apoptotic cells on tissue sections […] thick. For each animal three consecutive coronal sections were taken, mounted on glass slides and processed for immunohistochemical analysis according to the recommended procedures. For quantification, the number of positive neurons in each section was counted across the dorsolateral region of the striatum of both hemispheres and means values were calculated.
We set up a protocol in which male C57BL/6 mice were injected with CPP-SCR or CPP-RB5 peptides (20 mg/kg, i.p.) twice a day (every 12 h) for 7 days and 1 h after peptides injection they received one injection of 3-NP (50 mg/kg). At the end of treatment, animals were perfused and brains were prepared as for immunohistochemistry.

Tg2576 mice = assay: Contextual Fear Conditioning in Tg2576 mice; type: in vivo, mouse; details: 20 mg/kg i.p. before CFC training, retention 24 h later
Method: 7 months old Tg2576 mice and WT mice were treated with either CPP-SCR or CPP-RB5 (20 mg/kg, i.p.) before Contextual Fear Conditioning (CFC) training and tested for memory retention 24 h later. Contextual Fear (CF) memory impairment in Tg2576 mice is fully rescued by RB5 treatment. Values are reported as % of time spent freezing. Data are expressed as Mean±SEM. *p<0.05**p<0.01.
Mice protocol: after 120 sec of exploration, mice received 5 foot shocks (0.7 mA, 2-s duration, separated by 60-s intervals) delivered through the grid floor. Context Fear Memory was assessed 24 h later by returning mice for 5 min to the conditioning chamber and not delivering a foot shock.
For all protocols, freezing behavior served as a measure of conditioned fear to the context during the conditioning and retrieval tests of the behavioural procedures. This was video-recorded and quantified by an observer blind to the experimental group. One unit of freezing was defined as a continuous absence of movement other than that required for respiration in 1 s sampled every 10 s.

| Compound | reduction of apoptosis compared to CPP-SCR values ([1]; 50 μM, 7 consecutive days, TUNEL) [%] | Caspase-3 levels (striatum) [2] | apoptotic levels (TUNEL, striatum) [2] | Contextual Fear (CF) memory impairment (% of time spent freezing) (Tg2576 mice) | apoptotic levels (TUNEL apoptotic nuclei) ([1]; higher dose (50 μM), 7 days, vs Scramble) |
| --- | --- | --- | --- | --- | --- |
| GRKKRRQRRRPPQGGGGGEPRRTEGVGPGVPGEVEMVKGQPFDV (listed as Homo sapiens) [CPP-RB5] | 32 | reduce pre-apoptotic levels of Caspase 3 marker to control levels | reducing apoptosis to control levels | rescued already present memory impairments in aged Tg2576 mice back to WT levels |  |
| CSCC[C@H](NC(=O)[C@H](CCC(=O)O)NC(=O)[C@@H](NC(=O)[C@H](CCC(=O)O)NC(=O)CNC(=O)[C@@H]1CCCN1C(=O)[C@@H](NC(=O)CNC(=O)[C@@H]1CCCN1C(=O)CNC(=O)[C@@H](NC(=O)CNC(=O)[C@H](CCC(=O)O)NC(=O)[C@@H](NC(=O)[C@H](CCCNC(=N)N)NC(=O)[C@H](CCCNC(=N)N)NC(=O)[C@@H]1CCCN1C(=O)[C@H](CCC(=O)O)NC(=O)CNC(=O)CNC(=O)CNC(=O)CNC(=O)CNC(=O)[C@H](CCC(N)=O)NC(=O)[C@@H]1CCCN1C(=O)[C@@H]1CCCN1C(=O)[C@H](CCCNC(=N)N)NC(=O)[C@H](CCCNC(=N)N)NC(=O)[C@H](CCCNC(=N)N)NC(=O)[C@H](CCC(N)=O)NC(=O)[C@H](CCCNC(=N)N)NC(=O)[C@H](CCCNC(=N)N)NC(=O)[C@H](CCCCN)NC(=O)[C@H](CCCCN)NC(=O)[C@H](CCCNC(=N)N)NC(=O)CNC(C)=O)[C@@H](C)O)C(C)C)C(C)C)C(C)C)C(=O)N[C@H](C(=O)N[C@@H](CCCCN)C(=O)NCC(=O)N[C@@H](CCC(N)=O)C(=O)N1CCC[C@H]1C(=O)N[C@@H](Cc1ccccc1)C(=O)N[C@@H](CC(=O)O)C(=O)N[C@@H](C(=O)O)C(C)C)C(C)C [RB5] |  | diminished Caspase-3 levels | significant reduction of apoptotic levels | fully rescued | significant reduction of apoptotic levels |
